From US11208400B2, “Substituted 6-(1H-pyrazol-1-yl)pyrimidin-4-amine derivatives and uses thereof” (Bayer Aktiengesellschaft, priority 2016, dated 2021)
Where a name gives a salt, the structure may show the parent alone.

Target: T1, human Npt2a (Homo sapiens, UniProt Q06495)
T1 construct: expressed in transfected cells
T1 sequence (Q06495 1-639): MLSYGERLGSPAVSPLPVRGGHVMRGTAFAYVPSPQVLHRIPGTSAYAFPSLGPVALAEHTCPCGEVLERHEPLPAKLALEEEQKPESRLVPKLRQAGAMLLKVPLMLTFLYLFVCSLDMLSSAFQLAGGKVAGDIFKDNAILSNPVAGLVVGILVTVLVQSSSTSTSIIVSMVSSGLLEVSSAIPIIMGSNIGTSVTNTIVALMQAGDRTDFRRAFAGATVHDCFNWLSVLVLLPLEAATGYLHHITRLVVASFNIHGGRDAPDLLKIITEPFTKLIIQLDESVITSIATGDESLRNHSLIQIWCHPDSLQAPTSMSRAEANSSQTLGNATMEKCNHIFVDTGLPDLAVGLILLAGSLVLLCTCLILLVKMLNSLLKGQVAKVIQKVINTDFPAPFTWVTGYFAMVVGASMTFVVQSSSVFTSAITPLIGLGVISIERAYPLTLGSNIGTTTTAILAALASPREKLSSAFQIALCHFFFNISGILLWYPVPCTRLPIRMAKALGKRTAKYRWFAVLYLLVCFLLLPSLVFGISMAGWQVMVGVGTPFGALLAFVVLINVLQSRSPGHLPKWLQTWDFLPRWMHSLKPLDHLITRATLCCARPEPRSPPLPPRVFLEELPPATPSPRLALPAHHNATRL
Test: Npt2a activity cell based assay, membrane potential dye, CHO T-REx hNpt2a cells
Details: doxycycline-induced, depolarization by sodium phosphate influx, average or median values if tested more than once
Protocol: For measuring Npt2a activity in a cell based assay, a stable CHO cell line with inducible Npt2a expression was generated. Therefore, CHO T-Rex cells (life technologies cat. R718-07) were stably transfected with doxycycline-inducible human NPT2a (pcDNA5TO-hNpt2a). The obtained CHO T-REx hNpt2a cells were routinely cultured in Dulbecco's MEM/F12 (4.5 g/l Glucose, Gibco cat. 21331-020; 500 mL) supplemented with 10 ml Glutamax 100×, Sodium pyruvate (7 mL of 100 mM solution), HEPES (10 mL of 1 M solution), Sodium bicarbonate (10 mL of 7.5% solution), 10% Fetal Bovine Serum Tetracycline free (Clontech cat. 631106, 500 ml), Penicillin-Streptomycin (5 mL of 100× Solution), Blasticidin 10 μg/mL and 400 μg/mL Hygromycin.
Activity of Npt2a was detected by following depolarization of cellular membrane potential by influx of sodium phosphate using fluorescent membrane potential dye kit BLUE (Molecular devices cat. R8034). For Npt2a activity measurements, CHO T-Rex hNpt2a cells were seeded into 1536 well microtiter plates (GREINER Bio-One cat. 782092) with 750 cells/well in 7 μL/w of complete medium (2% Tetracycline-free FBS, 2% Poly-D-Lysine) without selective agents+Doxycycline 0.5 μg/mL to induce Npt2a gene expression, and grown for 24 h at 37° C., 5% carbon dioxide.
On the day of experiment a 1×MPdye Loading Solution was freshly prepared by re-suspending 15 mg of Blue MPdye powder in 10 mL of NHE buffer sodium-free (140 mM N-Methyl-D-glucamine, 5.4 mM KCl, 1 mM CaCl2, 11 mM D(±)-Glucose water free, 1.2 mM MgCl2, 10 mM HEPES; pH 7.4 (adjusted with hydrochloric acid); sterile filtered). 5 μl medium was removed from plates by robotic manipulation, then 5 μL/well of sodium-free NHE buffer was added. After incubation for 2 min, this washing step was repeated once. Then, 5 μL/w of buffer was removed from plates and cells were incubated for 5 min at room temperature with 5 μL/w of MPdye Loading Solution (1× in Sodium-free NHE Buffer). Test compounds were added to the cells at final test concentrations between 50 μM and 1 nM (0.6 μL/well, final DMSO 0.6%, prepared in MPDye Loading Solution) and incubated for 5 min at room temperature.
Plates were analyzed with an in house CCD camera device using a λexc 510-545 nm/λem 565-625 nm filter. Fluorescence was detected for 15 sec (background measurement M1). Activity of Npt2a was triggered by addition of 2 μL/well of 30 mM Na+ and 1 mM phosphate (prepared in a mixture of NHE Buffer Na+ free and NHE Buffer 140 mM Na+). Fluorescence was followed for 2-3 min (depolarization measurement M2). Data was normalized to cell number and dye loading efficiency by calculating M2/M1. This quotient was plotted against test compound concentration. Graph Pad Prism or equivalent in house software was used to create sigmoidal dose-response curves (variable slope) and determine IC50 values.

Compound | IC50 [nM]
CCOC(=O)c1c(C)nn(-c2cc(Nc3c(Cl)c(-c4ccccc4)nn3C)ncn2)c1C [Example 79, ethyl 1-{6-[(4-chloro-1-methyl-3-phenyl-1H-pyrazol-5-yl)amino]pyrimidin-4-yl}-3,5-dimethyl-1H-pyrazole-4-carboxylate] | 31
Cc1cc(C)n(-c2cc(Nc3c(Cl)c(-c4ccc(F)cc4F)nn3C)ncn2)n1 [Example 50, N-[4-chloro-3-(2,4-difluorophenyl)-1-methyl-1H-pyrazol-5-yl]-6-(3,5-dimethyl-1H-pyrazol-1-yl)pyrimidin-4-amine] | 160
Cc1cc(C(F)F)n(-c2cc(Nc3c(C4CC4)c(-c4ccc(F)cc4)nn3C)ncn2)n1 [Example 96, N-[4-cyclopropyl-3-(4-fluorophenyl)-1-methyl-1H-pyrazol-5-yl]-6-[5-(difluoromethyl)-3-methyl-1H-pyrazol-1-yl]pyrimidin-4-amine] | 110
COc1ccc(-c2nn(C)c(Nc3cc(-n4nc(C)c(C(F)(F)F)c4C)ncn3)c2C)cn1 [Example 494, 6-[3,5-dimethyl-4-(trifluoromethyl)-1H-pyrazol-1-yl]-N-[3-(6-methoxypyridin-3-yl)-1,4-dimethyl-1H-pyrazol-5-yl]pyrimidin-4-amine] | 190
Cc1nn(-c2cc(Nc3c(C)c(-c4ccc(F)cc4)nn3CC3CC3)ncn2)c(C)c1N [Example 484, 6-(4-amino-3,5-dimethyl-1H-pyrazol-1-yl)-N-[1-(cyclopropylmethyl)-3-(4-fluorophenyl)-4-methyl-1H-pyrazol-5-yl]pyrimidin-4-amine trifluoroacetate] | 36
Cc1nn(-c2cc(Nc3nn(C)c(-c4ccc(F)cc4)c3Cl)ncn2)c(C)c1C(C)(C)O [Example 276, 2-[1-(6-{[4-chloro-5-(4-fluorophenyl)-1-methyl-1H-pyrazol-3-yl]amino}pyrimidin-4-yl)-3,5-dimethyl-1H-pyrazol-4-yl]propan-2-ol] | 25
COc1c(-c2ccc(C#N)cc2)nn(CC2CC2)c1Nc1cc(-n2nc(C)c(C(C)=O)c2C)ncn1 [Example 318, 4-[5-{[6-(4-acetyl-3,5-dimethyl-1H-pyrazol-1-yl)pyrimidin-4-yl]amino}-1-(cyclopropylmethyl)-4-methoxy-1H-pyrazol-3-yl]benzonitrile] | 790
COC(C)c1c(C)nn(-c2cc(Nc3nn(C)c(-c4ccc(F)cc4)c3C)ncn2)c1C (single isomer, unassigned) [Example 344, N-[5-(4-fluorophenyl)-1,4-dimethyl-1H-pyrazol-3-yl]-6-{4-[1-methoxyethyl]-3,5-dimethyl-1H-pyrazol-1-yl}pyrimidin-4-amine] | 5
Cc1cc(C)n(-c2cc(Nc3c(C)c(-c4ccc(F)cc4)nn3CC(O)C3CC3)ncn2)n1 (single isomer, unassigned) [Example 371, 1-cyclopropyl-2-[5-{[6-(3,5-dimethyl-1H-pyrazol-1-yl)pyrimidin-4-yl]amino}-3-(4-fluorophenyl)-4-methyl-1H-pyrazol-1-yl]ethanol] | 240
Cc1cc(C)n(-c2cc(Nc3c(Cl)c(-c4ccccc4)nn3C)ncn2)n1 [Example 457, N-(4-chloro-1-methyl-3-phenyl-1H-pyrazol-5-yl)-6-(3,5-dimethyl-1H-pyrazol-1-yl)pyrimidin-4-amine] | 130
Cc1cc(C)n(-c2cc(Nc3c(C)c(-c4ccc(C#N)cc4)nn3CC3CC3)ncn2)n1 [Example 141, 4-[1-(cyclopropylmethyl)-5-{[6-(3,5-dimethyl-1H-pyrazol-1-yl)pyrimidin-4-yl]amino}-4-methyl-1H-pyrazol-3-yl]benzonitrile] | 3
Cc1cc(C)n(-c2cc(Nc3nn(C)c(-c4ccccc4)c3Cl)ncn2)n1 [Example 52, N-(4-chloro-1-methyl-5-phenyl-1H-pyrazol-3-yl)-6-(3,5-dimethyl-1H-pyrazol-1-yl)pyrimidin-4-amine] | 83
Cc1cc(C)n(-c2cc(Nc3nn(C)c(-c4ccc(F)cc4)c3Cl)ncn2)n1 [Example 91, N-[4-chloro-5-(4-fluorophenyl)-1-methyl-1H-pyrazol-3-yl]-6-(3,5-dimethyl-1H-pyrazol-1-yl)pyrimidin-4-amine] | 5.73
CCOC(=O)c1c(C)nn(-c2cc(Nc3c(C)c(-c4ccc(C#N)cc4)nn3C)ncn2)c1C [Example 213, ethyl 1-(6-{[3-(4-cyanophenyl)-1,4-dimethyl-1H-pyrazol-5-yl]amino}pyrimidin-4-yl)-3,5-dimethyl-1H-pyrazole-4-carboxylate] | 2
CCCN1Cc2cn(-c3cc(Nc4c(C)c(-c5ccc(F)cc5)nn4CC4CC4)ncn3)nc2C1 [Example 523, N-[1-(cyclopropylmethyl)-3-(4-fluorophenyl)-4-methyl-1H-pyrazol-5-yl]-6-(5-propyl-5,6-dihydropyrrolo[3,4-c]pyrazol-2(4H)-yl)pyrimidin-4-amine] | 690
Cc1c(-c2ccc(F)cc2)nn(CC2CC2)c1Nc1cc(-n2nc3c(c2C)C(C)(O)CC3)ncn1 (single isomer, unassigned) [Example 515, 2-(6-{[1-(cyclopropylmethyl)-3-(4-fluorophenyl)-4-methyl-1H-pyrazol-5-yl]amino}pyrimidin-4-yl)-3,4-dimethyl-2,4,5,6-tetrahydrocyclopenta[c]pyrazol-4-ol] | 110
CCOC(=O)c1c(Cl)c(C)nn1-c1cc(Nc2nn(C)c(-c3ccc(F)cc3)c2Cl)ncn1 [Example 303, ethyl 4-chloro-1-(6-{[4-chloro-5-(4-fluorophenyl)-1-methyl-1H-pyrazol-3-yl]amino}pyrimidin-4-yl)-3-methyl-1H-pyrazole-5-carboxylate] | 47
CCOC(=O)c1c(C)nn(-c2cc(Nc3c(C)c(-c4ccc(F)cc4)nn3CC3CC3)ncn2)c1C [Example 152, ethyl 1-(6-{[1-(cyclopropylmethyl)-3-(4-fluorophenyl)-4-methyl-1H-pyrazol-5-yl]amino}pyrimidin-4-yl)-3,5-dimethyl-1H-pyrazole-4-carboxylate] | 6
Cc1nn(-c2cc(Nc3c(C)c(-c4ccc(F)cc4)nn3CC3CC3)ncn2)c(C)c1C(C)O (racemic) [Example 249, (±)-1-[1-(6-{[1-(cyclopropylmethyl)-3-(4-fluorophenyl)-4-methyl-1H-pyrazol-5-yl]amino}pyrimidin-4-yl)-3,5-dimethyl-1H-pyrazol-4-yl]ethanol] | 22
CCc1c(Nc2cc(-n3ncc4c3CCCC4)ncn2)n[nH]c1-c1ccc(F)cc1 [Example 22, N-[4-ethyl-5-(4-fluorophenyl)-1H-pyrazol-3-yl]-6-(4,5,6,7-tetrahydro-1H-indazol-1-yl)pyrimidin-4-amine] | 150
CCOC(=O)c1c(C)nn(-c2cc(Nc3c(C)nn(-c4ccc(C#N)cc4)c3C)ncn2)c1C [Example 219, ethyl 1-(6-{[1-(4-cyanophenyl)-3,5-dimethyl-1H-pyrazol-4-yl]amino}pyrimidin-4-yl)-3,5-dimethyl-1H-pyrazole-4-carboxylate] | < 1.6
COC(C)c1c(C)nn(-c2cc(Nc3c(C)c(-c4ccc(C#N)cc4)nn3C)ncn2)c1C (racemic) [Example 338, (±)-4-{5-[(6-{4-[1-methoxyethyl]-3,5-dimethyl-1H-pyrazol-1-yl}pyrimidin-4-yl)amino]-1,4-dimethyl-1H-pyrazol-3-yl}benzonitrile] | 7
